The values below come from article PMC10872402, “HTS discovery of PARP1-HPF1 complex inhibitors in cancer” (SLAS discovery : advancing life sciences R & D, 2023).

The target in data set [1] is T1, PARP1–HPF1 complex (Homo sapiens, UniProt P09874+Q9NWY4).
T1 construct: made in house
Description: FP assay of PARP1–HPF1–DNA complex, PARP-directed library screen. The format is biochemical. As for the experimental part: An Opentrons OT-2 robot was used for all the pipetting steps as described. First, 20 μL of binding buffer was placed into each well of the 384-well assay plate. Next, 10 μL of the pre-formed complex of PARP1 - HPF1 - DNA or PARP2 – HPF1 – DNA (prepared in binding buffer) was added to all wells. Next, 1 μL of the inhibitors from the 12-point dilution were added to the 384-well plate and was incubated with the protein - DNA for 30 min at room temperature (RT). The plate was then transferred to BMG Labtech CLARIOstar plate reader equipped with a syringe injector. The injector was used to add 10 μL of NAD^+ into all wells except for eight control wells. […] Final concentrations were 5 nM p18mer (fluorescein-labeled), 10 nM PARP1/2, 200 nM HPF1, 200 μM NAD^+, and 0.09 μM – 200 μM inhibitor. IC50 values were calculated using a nonlinear regression analysis (sigmoidal dose-response fitting with variable slope) with the following equation: Y = Bottom + (Top – Bottom)/(1 + 10(LOGIC50 – X) · HILL SLOPE) using GraphPad Prism.
We base our assay method on our previously described fluorescence polarization (FP) assay for measuring the activity of PARP1 [15]. […] (Fig. 2A). For the inhibition assay, the complex is incubated with potential inhibitors and the PARylation reaction is initiated by the addition of NAD^+. […]

A further data set deals with SUM149PT tumor organoids. Description: Tumor organoid cytotoxicity, CellTiter-Glo 3D. The format is cell-based. Conditions: Homo sapiens, 96 h, read-out: IC50 tumor organoid viability. As for the experimental part: SUM149PT cells were plated at 2000 cells/well into 96-well Clear Round Bottom Ultra-Low Attachment plates (Cat. No. 7007, Corning, Corning, NY) in complete growth medium. Cell assay plates were centrifuged at 1000 RPM for 15 min to promote cellular aggregation, then 25 μL of cold Growth-Factor Reduced (GFR) Matrigel (10 %) was added per well for a final concentration of 2 %. […] Briefly, tumor organoids were transferred to 96-well CELLSTAR white solid bottom plates (Cat. No. 655083, Greiner Bio-One, Monroe, NC), 40 μL (1:1) of CellTiter-Glo 3D was added to each well and plates were then placed on an orbital shaker at 450 RPM for 45 min at room temperature. CellTiter-Glo 3D’s luminescence signal was assessed using the Envision microplate reader (Revvity, Waltham, MA) with a measurement time of 100 ms. The experiment was done with triplicate organoids per condition, and IC50.values were calculated as described above.
In general terms: Cellular ATP, detected with luciferase, serves as a proxy for viable cell number.

For data set [2], the system named is PAR in the nucleus of SUM149PT cells. As to the kind of experiment: PAR immunofluorescence in SUM149PT cells with MMS. The format is cell-based. Particulars: 10 and 12.5 μM, 5 h, 0.01 % MMS; for amount of PAR in the nucleus: p<0.05 for 145 and 88, p<0.001 for 4. As for the experimental part:
18,000 SUM149PT cells were seeded into a 96 well PhenoPlate (Revvity) and allowed to adhere overnight. Cells were then treated with the selected hits at a concentration of 10 or 12.5 μM and 0.01 % final concentration of MMS for 5 h. The medium was then aspirated, and cells were fixed with 4 % paraformaldehyde for 15 min at room temperature (RT). After washing twice with PBS, cells were incubated with 0.3 % Triton X-100 for 15 min followed by another washing step. To decrease unspecific binding of the antibodies, cells were blocked in 5 % milk for 30 min at RT. Afterwards, cells were incubated with the anti-PAR primary antibody at a 1:1000 dilution for 2 h at RT. Cells were washed again and incubated with a goat anti-mouse AlexaFluor 647 secondary antibody at a 1:500 dilution for […] at RT. Finally, cells were washed, stained with Hoechst 33342 (1:1000), and imaged using a 40x water objective on the Phenix Plus High-Content Screening (HCS) System (Revvity). Each bar graph is representative of two experiments, each with three replicates of whole-well analysis per condition. The reported data represents the average of each cell within the replicates, plotted with standard deviation error bars.

For data set [3], the target named is T1, PARP1–HPF1 complex. As to the kind of experiment: FP assay of PARP1–HPF1–DNA complex, dose response of hits from the 10,000 compound pilot HTS. The format is biochemical. Particulars: dose response of HTS hits in duplicate; 10 nM PARP1, 100 nM HPF1, 15 min. As to the method: A Revvity G3 Explorer collaborative robot equipped with a freezer containing the drug library, a Revvity Janus liquid handler, and a Revvity Envision was used to carry out the screen. A ChemBridge diversity library containing 10,000 compounds was used for screening. Two identical daughter plates (2 mM) were generated, one for HTS and one for cherry-picking hits identified from HTS. The drug library was maintained in a LiCONiC STX500-DF Deep Freezer at −20 °C with 80 % N2. Binding buffer (13 μL) with 0.04 % DMSO was added to columns 23 and 24 of 32 384-well plates (Corning 3575). Next, 24.5 μL binding buffer was added to all wells on the plates. Then, 0.5 μL of 2 mM stock solutions for each of the 10,000 compounds was added to separate wells, giving a final concentration of 20 μM, excluding columns 1, 2, 23, and 24. Afterwards, 12.5 μL premix (PARP1 – HPF1 – DNA, at 10 nM PARP1, 100 nM HPF1, and 5 nM FITC-labeled p18mer DNA) was added to all wells. Next, 12.5 μL of 2 mM NAD^+ was added to each well.
Dose response curves for the hits were performed using the same Revvity robot system as for the initial screen. Binding buffer (13 μL) with 0.04 % DMSO was added to columns 23 and 24 of 32 different Corning (Cat. No. 3575) plates. Next, 25 μL binding buffer was added to all wells on the plates. Cherry-picked compound plates generated from the compound source used in the initial HTS were used to add 1 compound per column from 20 to 160 nM in duplicate with 2x serial dilution using a Revvity FlexDrop iQ instrument. A 12.5 μL premix (PARP1 – HPF1 – DNA, as above) was added to all wells. Afterwards, 12.5 μL of 2 mM NAD^+ was added to each well and plates were incubated for 15 min at RT. The FP signal was read as above, and data for screened compounds was normalized between 100 % (positive control, […]) and 0 % (negative control, rows 1 and 2). Dose response curves were plotted and fit using GraphPad Prism with a non-linear regression analysis as described above.

The next data set concerns cancer cells. Further details: method as in PMID 35259019. Particulars: read-out: IC50 cytotoxic activity; cited from earlier work.

Each structure is given as a SMILES string. Values joined by “and” are separate entries in the source; they are usually repeats but may differ in a detail not shown here. Equal values may be shown once.

T1 sequence (P09874 whole entry): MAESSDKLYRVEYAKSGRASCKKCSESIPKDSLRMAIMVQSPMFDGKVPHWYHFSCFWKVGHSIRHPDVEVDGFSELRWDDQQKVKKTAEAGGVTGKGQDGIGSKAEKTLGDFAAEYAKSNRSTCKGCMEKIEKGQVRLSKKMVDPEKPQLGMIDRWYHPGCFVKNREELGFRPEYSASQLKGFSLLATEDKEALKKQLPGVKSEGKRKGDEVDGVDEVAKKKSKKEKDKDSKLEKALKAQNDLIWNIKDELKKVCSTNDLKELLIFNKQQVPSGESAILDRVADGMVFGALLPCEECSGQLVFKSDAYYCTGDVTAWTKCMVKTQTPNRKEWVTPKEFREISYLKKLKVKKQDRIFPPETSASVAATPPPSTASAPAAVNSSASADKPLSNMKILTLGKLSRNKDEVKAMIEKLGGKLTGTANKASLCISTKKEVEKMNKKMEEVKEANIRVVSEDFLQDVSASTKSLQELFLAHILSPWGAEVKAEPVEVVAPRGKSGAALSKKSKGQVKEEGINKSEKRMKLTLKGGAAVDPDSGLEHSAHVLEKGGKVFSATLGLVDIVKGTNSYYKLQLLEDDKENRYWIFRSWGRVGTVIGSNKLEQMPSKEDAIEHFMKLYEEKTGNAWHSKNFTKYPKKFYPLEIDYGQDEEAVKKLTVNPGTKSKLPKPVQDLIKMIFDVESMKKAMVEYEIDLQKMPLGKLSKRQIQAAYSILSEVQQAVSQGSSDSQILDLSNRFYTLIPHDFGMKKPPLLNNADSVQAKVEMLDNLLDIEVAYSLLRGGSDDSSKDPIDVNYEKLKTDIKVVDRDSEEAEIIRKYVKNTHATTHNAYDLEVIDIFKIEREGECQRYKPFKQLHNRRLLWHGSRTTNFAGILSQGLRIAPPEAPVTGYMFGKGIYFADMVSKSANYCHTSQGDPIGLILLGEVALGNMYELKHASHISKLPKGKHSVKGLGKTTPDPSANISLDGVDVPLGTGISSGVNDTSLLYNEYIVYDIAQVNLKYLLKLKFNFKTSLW
T1 sequence (Q9NWY4 whole entry): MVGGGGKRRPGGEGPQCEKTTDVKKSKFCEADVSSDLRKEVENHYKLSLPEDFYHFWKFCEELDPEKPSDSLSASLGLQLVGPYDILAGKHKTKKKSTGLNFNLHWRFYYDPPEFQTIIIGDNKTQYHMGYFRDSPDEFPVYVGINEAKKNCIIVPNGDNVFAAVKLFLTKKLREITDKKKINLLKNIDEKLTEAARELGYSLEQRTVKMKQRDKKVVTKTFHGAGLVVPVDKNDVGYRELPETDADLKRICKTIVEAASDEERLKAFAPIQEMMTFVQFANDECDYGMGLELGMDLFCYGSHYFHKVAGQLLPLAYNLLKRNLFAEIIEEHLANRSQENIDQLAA

On PARP1–HPF1 complex [1], `NC(=O)c1ccccc1` [benzamide, reference compound] came in with an IC50 of 14 µM. Turning to `O=C(COc1ccccc1)c1cn(CC(=O)N2CCOCC2)c2ccccc12` [compound 4], the 50% inhibitory concentration (IC50) in the data set on SUM149PT tumor organoids came to 251 µM. For the same compound, in data set [2], the “inhibition of PARylation” value was “dose-dependent inhibition of PARylation” and the “amount of PAR in the nucleus” value is “reduced PAR at all doses”. The IC50 at PARP1–HPF1 complex [3] was ~1 µM and 1.07 µM. `CCNCC#CCOc1ccc(Br)cc1` [compound 60]: the IC50 at PARP1–HPF1 complex [3] came to 7.77 µM. As to `COc1cccc(-c2nc(CC(=O)Nc3ccc(C)c(C)c3)no2)c1` [compound 88], in data set [2], the “inhibition of PARylation” value was “dose-dependent inhibition of PARylation” and the “amount of PAR in the nucleus” value was “decreased the amount of PAR in the nucleus at the higher dose tested”. This compound also yielded an IC50 against PARP1–HPF1 complex [3] of 13.5 µM. Regarding `CCNCC#CCOc1cccc(C(F)(F)F)c1` [compound 89], on PARP1–HPF1 complex [3], the half-maximal inhibitory concentration (IC50) is 13.8 µM.

In turn, `CNCC#CCOc1ccc(Cl)c(C)c1` [compound 110] displayed an IC50 against PARP1–HPF1 complex [3] of 20.4 µM. Regarding `CCNC/C=C/COc1ccccc1OCC` [compound 116], the IC50 on PARP1–HPF1 complex [3] is 22.6 µM. Take `N#Cc1c(NC(=O)C#Cc2ccccc2)sc2c1CCC2` [compound 145]: in data set [2], the “inhibition of PARylation” value is recorded as “dose-dependent inhibition of PARylation” and the “amount of PAR in the nucleus” value is “decreased the amount of PAR in the nucleus at the higher dose tested”. In addition, on PARP1–HPF1 complex [3], the midpoint of inhibition, the IC50, lay at 36.8 µM. As for `N#Cc1sc2nc(-c3ccc(F)cc3F)ccc2c1N` [compound 151], at PARP1–HPF1 complex [3], the IC50 amounted to 40.7 µM. With `O=C(c1cc(Cc2n[nH]c(=O)c3ccccc23)ccc1F)N1CCN(C(=O)C2CC2)CC1` [olaparib, reference compound], the IC50 with SUM149PT tumor organoids was 85 µM; in the data set with cancer cells it was greater than 50 µM.

The term IC50 denotes the concentration needed to halve the response being measured.
